{"source": "paper PMC10838953", "key": {"p38 MAPK (T180/Y182)": {"system": "p38 MAPK (T180/Y182)", "settings": "HEK293 cells; 48 h"}, "[1]": {"system": "tumor slices of clear cell renal carcinoma (786-O-luc xenograft)", "settings": "10 μM CX-4945, 5 μM AB668"}, "[2]": {"system": "RPTEC (renal proximal tubule epithelial cells)", "settings": "high concentrations"}, "ACVR1B": {"molecular_target": "ACVR1B (Homo sapiens, UniProt P36896)", "experiment": "biochemical", "settings": "read-out: %Ctrl @ 2000nM"}, "AKT3": {"molecular_target": "AKT3 (Homo sapiens, UniProt Q9Y243)", "experiment": "biochemical", "settings": "read-out: %Ctrl @ 2000nM"}, "AMPK-alpha1": {"molecular_target": "AMPK-alpha1 (Homo sapiens, UniProt Q13131)", "experiment": "biochemical", "settings": "read-out: %Ctrl @ 2000nM"}, "BRAF": {"molecular_target": "BRAF (Homo sapiens, UniProt P15056)", "experiment": "biochemical", "settings": "read-out: %Ctrl @ 2000nM"}, "CAMK4": {"molecular_target": "CAMK4 (Homo sapiens, UniProt Q16566)", "sequence (Q16566 whole entry)": "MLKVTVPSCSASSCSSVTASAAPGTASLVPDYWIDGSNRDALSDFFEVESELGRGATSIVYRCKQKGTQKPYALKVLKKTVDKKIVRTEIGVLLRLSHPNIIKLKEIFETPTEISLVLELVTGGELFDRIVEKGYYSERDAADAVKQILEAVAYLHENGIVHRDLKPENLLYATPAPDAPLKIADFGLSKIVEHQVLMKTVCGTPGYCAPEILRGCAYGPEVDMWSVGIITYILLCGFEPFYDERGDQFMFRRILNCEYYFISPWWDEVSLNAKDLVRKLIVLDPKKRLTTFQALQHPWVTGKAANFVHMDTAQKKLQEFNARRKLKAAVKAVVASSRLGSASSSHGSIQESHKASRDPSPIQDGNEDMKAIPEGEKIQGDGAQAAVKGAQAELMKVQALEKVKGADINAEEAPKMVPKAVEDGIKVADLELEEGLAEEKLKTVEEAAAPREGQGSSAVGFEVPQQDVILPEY", "experiment": "biochemical", "settings": "read-out: %Ctrl @ 2000nM"}, "CSNK1A1": {"molecular_target": "CSNK1A1 (Homo sapiens, UniProt P48729)", "sequence (P48729 whole entry)": "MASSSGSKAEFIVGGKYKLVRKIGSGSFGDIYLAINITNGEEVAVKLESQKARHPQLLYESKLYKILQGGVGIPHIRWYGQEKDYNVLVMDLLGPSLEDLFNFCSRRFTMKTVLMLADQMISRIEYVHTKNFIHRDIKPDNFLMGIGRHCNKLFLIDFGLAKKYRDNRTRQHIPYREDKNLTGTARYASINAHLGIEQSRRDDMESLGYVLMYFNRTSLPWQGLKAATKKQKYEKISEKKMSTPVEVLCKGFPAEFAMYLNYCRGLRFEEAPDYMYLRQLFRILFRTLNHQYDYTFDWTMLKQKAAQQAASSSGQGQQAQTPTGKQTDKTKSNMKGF", "experiment": "biochemical", "settings": "read-out: %Ctrl @ 2000nM"}, "DCAMKL2": {"molecular_target": "DCAMKL2 (Homo sapiens, UniProt Q8N568)", "experiment": "biochemical", "settings": "read-out: %Ctrl @ 2000nM"}, "EPHB1": {"molecular_target": "EPHB1 (Homo sapiens, UniProt P54762)", "experiment": "biochemical", "settings": "read-out: %Ctrl @ 2000nM"}, "FGFR2": {"molecular_target": "FGFR2 (Homo sapiens, UniProt P21802)", "experiment": "biochemical", "settings": "read-out: %Ctrl @ 2000nM"}, "FGFR3": {"molecular_target": "FGFR3 (Homo sapiens, UniProt P22607)", "experiment": "biochemical", "settings": "read-out: %Ctrl @ 2000nM"}, "FGFR3(G697C)": {"molecular_target": "FGFR3(G697C) (Homo sapiens, UniProt P22607, G697C)", "experiment": "biochemical", "settings": "read-out: %Ctrl @ 2000nM"}, "FLT3": {"molecular_target": "FLT3 (Homo sapiens, UniProt P36888)", "experiment": "biochemical", "settings": "read-out: %Ctrl @ 2000nM"}, "FLT3(D835V)": {"molecular_target": "FLT3(D835V) (Homo sapiens, UniProt P36888, D835V)", "experiment": "biochemical", "settings": "read-out: %Ctrl @ 2000nM"}, "FLT4": {"molecular_target": "FLT4 (Homo sapiens, UniProt P35916)", "experiment": "biochemical", "settings": "read-out: %Ctrl @ 2000nM"}, "HASPIN": {"molecular_target": "HASPIN (Homo sapiens, UniProt Q8TF76)", "experiment": "biochemical", "settings": "read-out: %Ctrl @ 2000nM"}, "HIPK3": {"molecular_target": "HIPK3 (Homo sapiens, UniProt Q9H422)", "sequence (Q9H422 whole entry)": "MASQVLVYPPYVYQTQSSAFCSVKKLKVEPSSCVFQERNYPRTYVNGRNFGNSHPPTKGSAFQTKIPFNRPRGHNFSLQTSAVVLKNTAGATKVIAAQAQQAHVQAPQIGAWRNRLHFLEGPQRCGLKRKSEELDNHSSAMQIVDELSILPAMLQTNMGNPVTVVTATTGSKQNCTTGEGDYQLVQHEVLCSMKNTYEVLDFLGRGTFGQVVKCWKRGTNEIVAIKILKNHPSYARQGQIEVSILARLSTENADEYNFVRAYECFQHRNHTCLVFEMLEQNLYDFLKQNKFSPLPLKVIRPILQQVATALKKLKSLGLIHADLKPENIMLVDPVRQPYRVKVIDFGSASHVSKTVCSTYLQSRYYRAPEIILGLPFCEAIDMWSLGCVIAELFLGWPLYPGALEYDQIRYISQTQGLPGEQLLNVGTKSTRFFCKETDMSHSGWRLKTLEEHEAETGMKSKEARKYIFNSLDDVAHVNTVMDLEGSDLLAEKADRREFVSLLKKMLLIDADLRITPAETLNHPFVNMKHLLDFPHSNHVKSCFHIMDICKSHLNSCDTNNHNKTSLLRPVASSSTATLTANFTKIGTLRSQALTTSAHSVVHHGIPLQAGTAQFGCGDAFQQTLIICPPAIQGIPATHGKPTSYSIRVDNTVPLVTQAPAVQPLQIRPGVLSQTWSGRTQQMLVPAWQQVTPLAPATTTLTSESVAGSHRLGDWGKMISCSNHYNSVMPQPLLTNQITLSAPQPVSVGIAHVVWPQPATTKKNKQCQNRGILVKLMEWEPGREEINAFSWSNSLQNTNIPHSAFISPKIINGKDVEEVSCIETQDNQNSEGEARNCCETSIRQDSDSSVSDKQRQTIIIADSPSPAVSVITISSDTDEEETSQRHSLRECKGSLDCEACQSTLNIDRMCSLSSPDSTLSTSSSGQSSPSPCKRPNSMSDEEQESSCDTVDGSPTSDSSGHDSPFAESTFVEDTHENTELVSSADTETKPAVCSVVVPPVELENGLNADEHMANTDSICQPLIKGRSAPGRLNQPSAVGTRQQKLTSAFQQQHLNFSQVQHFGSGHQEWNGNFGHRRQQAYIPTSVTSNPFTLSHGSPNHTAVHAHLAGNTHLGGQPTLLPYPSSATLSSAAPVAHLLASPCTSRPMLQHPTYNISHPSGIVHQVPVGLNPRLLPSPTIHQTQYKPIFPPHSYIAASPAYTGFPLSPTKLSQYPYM", "experiment": "biochemical", "settings": "read-out: %Ctrl @ 2000nM"}, "ICK": {"molecular_target": "ICK (Homo sapiens, UniProt Q9UPZ9)", "experiment": "biochemical", "settings": "read-out: %Ctrl @ 2000nM"}, "IRAK1": {"molecular_target": "IRAK1 (Homo sapiens, UniProt P51617)", "sequence (P51617 whole entry)": "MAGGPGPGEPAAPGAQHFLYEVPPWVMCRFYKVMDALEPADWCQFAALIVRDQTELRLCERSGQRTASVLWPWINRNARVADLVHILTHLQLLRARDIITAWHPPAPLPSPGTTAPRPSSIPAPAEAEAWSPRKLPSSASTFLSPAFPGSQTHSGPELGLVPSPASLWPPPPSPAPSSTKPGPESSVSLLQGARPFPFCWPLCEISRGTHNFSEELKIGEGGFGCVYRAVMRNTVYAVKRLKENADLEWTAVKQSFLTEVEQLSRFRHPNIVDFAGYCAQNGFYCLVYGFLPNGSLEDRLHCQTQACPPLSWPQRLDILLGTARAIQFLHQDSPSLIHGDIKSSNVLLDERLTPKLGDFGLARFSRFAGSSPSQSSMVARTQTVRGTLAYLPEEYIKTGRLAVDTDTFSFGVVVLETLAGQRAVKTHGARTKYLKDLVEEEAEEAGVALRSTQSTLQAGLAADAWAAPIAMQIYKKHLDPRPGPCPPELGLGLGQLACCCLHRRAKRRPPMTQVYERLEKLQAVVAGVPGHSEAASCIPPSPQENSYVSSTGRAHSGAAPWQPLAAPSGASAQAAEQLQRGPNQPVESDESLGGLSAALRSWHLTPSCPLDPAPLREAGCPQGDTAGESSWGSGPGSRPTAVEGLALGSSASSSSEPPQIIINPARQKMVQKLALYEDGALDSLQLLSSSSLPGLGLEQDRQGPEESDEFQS", "experiment": "biochemical", "settings": "read-out: %Ctrl @ 2000nM"}, "LATS2": {"molecular_target": "LATS2 (Homo sapiens, UniProt Q9NRM7)", "experiment": "biochemical", "settings": "read-out: %Ctrl @ 2000nM"}, "MAP3K2": {"molecular_target": "MAP3K2 (Homo sapiens, UniProt Q9Y2U5)", "sequence (Q9Y2U5 whole entry)": "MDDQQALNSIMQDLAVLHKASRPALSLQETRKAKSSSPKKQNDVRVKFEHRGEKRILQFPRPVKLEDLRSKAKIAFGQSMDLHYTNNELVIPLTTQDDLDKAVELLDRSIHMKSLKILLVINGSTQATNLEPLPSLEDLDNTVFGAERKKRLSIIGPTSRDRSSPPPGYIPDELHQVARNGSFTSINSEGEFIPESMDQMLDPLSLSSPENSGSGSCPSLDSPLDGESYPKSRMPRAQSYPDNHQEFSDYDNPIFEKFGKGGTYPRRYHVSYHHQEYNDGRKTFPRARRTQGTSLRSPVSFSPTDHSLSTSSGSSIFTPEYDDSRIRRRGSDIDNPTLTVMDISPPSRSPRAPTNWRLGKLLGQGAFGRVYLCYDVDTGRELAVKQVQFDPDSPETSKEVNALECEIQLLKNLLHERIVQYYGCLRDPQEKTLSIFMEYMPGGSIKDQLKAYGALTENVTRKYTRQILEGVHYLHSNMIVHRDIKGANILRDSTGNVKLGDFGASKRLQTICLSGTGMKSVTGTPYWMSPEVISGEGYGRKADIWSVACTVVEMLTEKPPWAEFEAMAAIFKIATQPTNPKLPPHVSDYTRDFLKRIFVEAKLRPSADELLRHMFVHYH", "experiment": "biochemical", "settings": "read-out: %Ctrl @ 2000nM"}, "MEK3": {"molecular_target": "MEK3 (Homo sapiens, UniProt P46734)", "experiment": "biochemical", "settings": "read-out: %Ctrl @ 2000nM"}, "MELK": {"molecular_target": "MELK (Homo sapiens, UniProt Q14680)", "experiment": "biochemical", "settings": "read-out: %Ctrl @ 2000nM"}, "MST2": {"molecular_target": "MST2 (Homo sapiens, UniProt Q13188)", "experiment": "biochemical", "settings": "read-out: %Ctrl @ 2000nM"}, "MST4": {"molecular_target": "MST4 (Homo sapiens, UniProt Q9P289)", "experiment": "biochemical", "settings": "read-out: %Ctrl @ 2000nM"}, "NEK4": {"molecular_target": "NEK4 (Homo sapiens, UniProt P51957)", "experiment": "biochemical", "settings": "read-out: %Ctrl @ 2000nM"}, "PFCDPK1(P.falciparum)": {"molecular_target": "PFCDPK1(P.falciparum) (Plasmodium falciparum, UniProt P62344)", "experiment": "biochemical", "settings": "read-out: %Ctrl @ 2000nM"}, "PHKG1": {"molecular_target": "PHKG1 (Homo sapiens, UniProt Q16816)", "experiment": "biochemical", "settings": "read-out: %Ctrl @ 2000nM"}, "PRKCD": {"molecular_target": "PRKCD (Homo sapiens, UniProt Q05655)", "experiment": "biochemical", "settings": "read-out: %Ctrl @ 2000nM"}, "RIPK2": {"molecular_target": "RIPK2 (Homo sapiens, UniProt O43353)", "experiment": "biochemical", "settings": "read-out: %Ctrl @ 2000nM"}, "ROS1": {"molecular_target": "ROS1 (Homo sapiens, UniProt P08922)", "experiment": "biochemical", "settings": "read-out: %Ctrl @ 2000nM"}, "S6K1": {"molecular_target": "S6K1 (Homo sapiens, UniProt P23443)", "experiment": "biochemical", "settings": "read-out: %Ctrl @ 2000nM"}, "SRC": {"molecular_target": "SRC (Homo sapiens, UniProt P12931)", "experiment": "biochemical", "settings": "read-out: %Ctrl @ 2000nM"}, "SRPK1": {"molecular_target": "SRPK1 (Homo sapiens, UniProt Q96SB4)", "experiment": "biochemical", "settings": "read-out: %Ctrl @ 2000nM"}, "STK16": {"molecular_target": "STK16 (Homo sapiens, UniProt O75716)", "experiment": "biochemical", "settings": "read-out: %Ctrl @ 2000nM"}, "SYK": {"molecular_target": "SYK (Homo sapiens, UniProt P43405)", "experiment": "biochemical", "settings": "read-out: %Ctrl @ 2000nM"}, "TIE2": {"molecular_target": "TIE2 (Homo sapiens, UniProt Q02763)", "experiment": "biochemical", "settings": "read-out: %Ctrl @ 2000nM"}, "TNK1": {"molecular_target": "TNK1 (Homo sapiens, UniProt Q13470)", "experiment": "biochemical", "settings": "read-out: %Ctrl @ 2000nM"}, "TRPM6": {"molecular_target": "TRPM6 (Homo sapiens, UniProt Q9BX84)", "experiment": "biochemical", "settings": "read-out: %Ctrl @ 2000nM"}, "ULK2": {"molecular_target": "ULK2 (Homo sapiens, UniProt Q8IYT8)", "sequence (Q8IYT8 whole entry)": "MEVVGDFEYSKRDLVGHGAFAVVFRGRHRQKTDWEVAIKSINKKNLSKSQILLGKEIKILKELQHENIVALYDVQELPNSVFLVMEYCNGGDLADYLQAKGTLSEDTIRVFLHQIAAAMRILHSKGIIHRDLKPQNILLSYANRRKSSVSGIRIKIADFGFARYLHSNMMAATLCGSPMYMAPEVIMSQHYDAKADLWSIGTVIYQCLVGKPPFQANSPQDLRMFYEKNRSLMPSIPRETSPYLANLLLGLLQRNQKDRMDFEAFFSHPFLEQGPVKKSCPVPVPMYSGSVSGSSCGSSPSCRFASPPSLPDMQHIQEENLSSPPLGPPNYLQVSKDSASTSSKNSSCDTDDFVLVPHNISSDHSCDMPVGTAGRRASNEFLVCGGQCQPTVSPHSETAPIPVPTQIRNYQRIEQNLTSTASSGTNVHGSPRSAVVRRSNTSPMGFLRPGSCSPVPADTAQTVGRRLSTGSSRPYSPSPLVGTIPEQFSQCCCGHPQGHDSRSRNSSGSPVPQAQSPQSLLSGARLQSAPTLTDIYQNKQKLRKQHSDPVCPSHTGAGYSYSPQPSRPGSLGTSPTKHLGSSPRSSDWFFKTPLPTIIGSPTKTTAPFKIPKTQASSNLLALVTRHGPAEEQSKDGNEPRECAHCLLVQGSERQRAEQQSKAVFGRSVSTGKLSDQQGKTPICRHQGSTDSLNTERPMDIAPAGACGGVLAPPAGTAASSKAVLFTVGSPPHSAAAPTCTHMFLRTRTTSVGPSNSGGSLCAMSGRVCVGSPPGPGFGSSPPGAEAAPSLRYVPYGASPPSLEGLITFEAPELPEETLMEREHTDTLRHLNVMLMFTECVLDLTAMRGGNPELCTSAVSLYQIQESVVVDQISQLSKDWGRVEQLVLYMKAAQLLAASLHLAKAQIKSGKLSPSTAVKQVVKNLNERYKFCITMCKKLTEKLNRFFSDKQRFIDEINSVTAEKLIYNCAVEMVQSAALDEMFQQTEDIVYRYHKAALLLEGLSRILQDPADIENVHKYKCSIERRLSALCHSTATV", "experiment": "biochemical", "settings": "read-out: %Ctrl @ 2000nM"}, "ZAP70": {"molecular_target": "ZAP70 (Homo sapiens, UniProt P43403)", "sequence (P43403 whole entry)": "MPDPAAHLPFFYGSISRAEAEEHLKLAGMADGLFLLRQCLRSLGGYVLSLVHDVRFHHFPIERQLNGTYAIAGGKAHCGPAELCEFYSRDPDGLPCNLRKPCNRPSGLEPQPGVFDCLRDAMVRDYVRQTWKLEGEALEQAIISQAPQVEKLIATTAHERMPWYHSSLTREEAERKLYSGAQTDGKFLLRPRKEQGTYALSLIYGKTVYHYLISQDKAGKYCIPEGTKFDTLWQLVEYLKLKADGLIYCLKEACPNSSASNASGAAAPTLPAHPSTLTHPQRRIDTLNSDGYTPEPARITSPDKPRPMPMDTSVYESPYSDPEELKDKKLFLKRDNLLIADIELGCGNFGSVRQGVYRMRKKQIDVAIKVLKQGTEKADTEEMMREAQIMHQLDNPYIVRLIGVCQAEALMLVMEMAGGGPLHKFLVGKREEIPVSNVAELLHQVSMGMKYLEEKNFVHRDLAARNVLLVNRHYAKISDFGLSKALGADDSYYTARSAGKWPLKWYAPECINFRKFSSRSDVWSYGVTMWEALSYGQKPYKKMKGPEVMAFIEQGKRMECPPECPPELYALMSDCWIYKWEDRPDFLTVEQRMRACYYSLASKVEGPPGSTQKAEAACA", "experiment": "biochemical", "settings": "read-out: %Ctrl @ 2000nM"}}, "data": [{"compound": "CC(C)COC(=O)c1[nH]c2ccc(F)cc2c1-c1cn(CC2CCN(CCNS(=O)(=O)c3ccc(CC(C)C)cc3)CC2)nn1", "note": "[AB668, isobutyl 5-fluoro-3-(1-((1-(2-((4-isobutylphenyl)sulfonamido)ethyl)piperidin-4-yl)methyl)-1H-1,2,3-triazol-4-yl)-1H-indole-2-carboxylate]", "values": [{"measurement": "p38 activation", "setting": "p38 MAPK (T180/Y182)", "value": "activated in both cell types"}, {"measurement": "cell viability of tumor slices", "setting": "[1]", "value": "significantly reduced cell viability"}, {"measurement": "cytotoxicity", "setting": "[2]", "value": "no cytotoxicity"}, {"measurement": "remaining activity at 2 µM", "setting": "ACVR1B", "value": 75, "unit": "%"}, {"measurement": "remaining activity at 2 µM", "setting": "AKT3", "value": 92, "unit": "%"}, {"measurement": "remaining activity at 2 µM", "setting": "AMPK-alpha1", "value": 99, "unit": "%"}, {"measurement": "remaining activity at 2 µM", "setting": "BRAF", "value": 100, "unit": "%"}, {"measurement": "remaining activity at 2 µM", "setting": "CAMK4", "value": 100, "unit": "%"}, {"measurement": "remaining activity at 2 µM", "setting": "CSNK1A1", "value": 96, "unit": "%"}, {"measurement": "remaining activity at 2 µM", "setting": "DCAMKL2", "value": 93, "unit": "%"}, {"measurement": "remaining activity at 2 µM", "setting": "EPHB1", "value": 100, "unit": "%"}, {"measurement": "remaining activity at 2 µM", "setting": "FGFR2", "value": 93, "unit": "%"}, {"measurement": "remaining activity at 2 µM", "setting": "FGFR3", "value": 89, "unit": "%"}, {"measurement": "remaining activity at 2 µM", "setting": "FGFR3(G697C)", "value": 100, "unit": "%"}, {"measurement": "remaining activity at 2 µM", "setting": "FLT3", "value": 87, "unit": "%"}, {"measurement": "remaining activity at 2 µM", "setting": "FLT3(D835V)", "value": 94, "unit": "%"}, {"measurement": "remaining activity at 2 µM", "setting": "FLT4", "value": 98, "unit": "%"}, {"measurement": "remaining activity at 2 µM", "setting": "HASPIN", "value": 100, "unit": "%"}, {"measurement": "remaining activity at 2 µM", "setting": "HIPK3", "value": 98, "unit": "%"}, {"measurement": "remaining activity at 2 µM", "setting": "ICK", "value": 100, "unit": "%"}, {"measurement": "remaining activity at 2 µM", "setting": "IRAK1", "value": 98, "unit": "%"}, {"measurement": "remaining activity at 2 µM", "setting": "LATS2", "value": 89, "unit": "%"}, {"measurement": "remaining activity at 2 µM", "setting": "MAP3K2", "value": 93, "unit": "%"}, {"measurement": "remaining activity at 2 µM", "setting": "MEK3", "value": 100, "unit": "%"}, {"measurement": "remaining activity at 2 µM", "setting": "MELK", "value": 100, "unit": "%"}, {"measurement": "remaining activity at 2 µM", "setting": "MST2", "value": 97, "unit": "%"}, {"measurement": "remaining activity at 2 µM", "setting": "MST4", "value": 92, "unit": "%"}, {"measurement": "remaining activity at 2 µM", "setting": "NEK4", "value": 86, "unit": "%"}, {"measurement": "remaining activity at 2 µM", "setting": "PFCDPK1(P.falciparum)", "value": 81, "unit": "%"}, {"measurement": "remaining activity at 2 µM", "setting": "PHKG1", "value": 76, "unit": "%"}, {"measurement": "remaining activity at 2 µM", "setting": "PRKCD", "value": 91, "unit": "%"}, {"measurement": "remaining activity at 2 µM", "setting": "RIPK2", "value": 83, "unit": "%"}, {"measurement": "remaining activity at 2 µM", "setting": "ROS1", "value": 89, "unit": "%"}, {"measurement": "remaining activity at 2 µM", "setting": "S6K1", "value": 89, "unit": "%"}, {"measurement": "remaining activity at 2 µM", "setting": "SRC", "value": 92, "unit": "%"}, {"measurement": "remaining activity at 2 µM", "setting": "SRPK1", "value": 88, "unit": "%"}, {"measurement": "remaining activity at 2 µM", "setting": "STK16", "value": 82, "unit": "%"}, {"measurement": "remaining activity at 2 µM", "setting": "SYK", "value": 100, "unit": "%"}, {"measurement": "remaining activity at 2 µM", "setting": "TIE2", "value": 83, "unit": "%"}, {"measurement": "remaining activity at 2 µM", "setting": "TNK1", "value": 96, "unit": "%"}, {"measurement": "remaining activity at 2 µM", "setting": "TRPM6", "value": 81, "unit": "%"}, {"measurement": "remaining activity at 2 µM", "setting": "ULK2", "value": 100, "unit": "%"}, {"measurement": "remaining activity at 2 µM", "setting": "ZAP70", "value": 76, "unit": "%"}]}]}
